Test: Degreasing effect on a soiled white painted metal plate (non-mechanical cleaning)
Conditions: 1:40 dilution in water, poured over painted metal plate soiled with train engine grease, rinsed with tap water
Method: The degreasing effect of the test formulations was assessed on a white painted metal plate soiled uniformly with a tough-to-clean greasy soil collected from a train engine. The cleaning formulation (1:40 dilution in water) was applied simply by pouring it over the surface (non-mechanical cleaning). After a short time interval, the whole plate was rinsed with tap water and cleaning performance was assessed quantitatively. The results are tabulated below and depicted in FIG. 1A (for the respective cleaning formulations A, B, and C containing no NaOH) and FIG. 1B. (for the respective cleaning formulations D, E, and F containing 2% NaOH).

C12/14 alkyl methylamine ethoxylate N-Oxide
Cleaning Performance: performs as well as the comparison hydrotrope
